# From ChEMBL document CHEMBL1145876, “New arylpiperazine derivatives with high affinity for alpha1A, D2 and 5-HT2A receptors” (Bioorg Med Chem Lett, 2003)
# Experiments:
# D(2) dopamine receptor = D(2) dopamine receptor (Rattus norvegicus, UniProt P61169); experiment: Binding affinity towards Dopamine receptor D2 in rat […] using [3H]spiperone; format: tissue-based
# [1] = molecular target: 5-hydroxytryptamine receptor 2A (Rattus norvegicus, UniProt P14842); experiment: Binding affinity towards 5-hydroxytryptamine 2A receptor using [3H]ketanserin
# Chain of 5-hydroxytryptamine receptor 2A (P14842 whole entry): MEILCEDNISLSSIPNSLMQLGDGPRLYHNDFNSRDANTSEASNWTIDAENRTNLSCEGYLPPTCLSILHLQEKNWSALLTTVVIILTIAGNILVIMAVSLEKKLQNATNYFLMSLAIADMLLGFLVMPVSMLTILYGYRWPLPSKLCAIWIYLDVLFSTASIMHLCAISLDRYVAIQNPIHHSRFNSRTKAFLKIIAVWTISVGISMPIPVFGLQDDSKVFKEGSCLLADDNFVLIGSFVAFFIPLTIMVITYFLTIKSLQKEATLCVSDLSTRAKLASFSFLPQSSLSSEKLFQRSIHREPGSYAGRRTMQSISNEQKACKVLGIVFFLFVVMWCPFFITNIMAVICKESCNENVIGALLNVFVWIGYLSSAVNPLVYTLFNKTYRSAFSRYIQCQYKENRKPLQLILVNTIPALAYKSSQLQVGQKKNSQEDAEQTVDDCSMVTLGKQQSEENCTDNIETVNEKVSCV
# Chain of D(2) dopamine receptor (P61169 whole entry): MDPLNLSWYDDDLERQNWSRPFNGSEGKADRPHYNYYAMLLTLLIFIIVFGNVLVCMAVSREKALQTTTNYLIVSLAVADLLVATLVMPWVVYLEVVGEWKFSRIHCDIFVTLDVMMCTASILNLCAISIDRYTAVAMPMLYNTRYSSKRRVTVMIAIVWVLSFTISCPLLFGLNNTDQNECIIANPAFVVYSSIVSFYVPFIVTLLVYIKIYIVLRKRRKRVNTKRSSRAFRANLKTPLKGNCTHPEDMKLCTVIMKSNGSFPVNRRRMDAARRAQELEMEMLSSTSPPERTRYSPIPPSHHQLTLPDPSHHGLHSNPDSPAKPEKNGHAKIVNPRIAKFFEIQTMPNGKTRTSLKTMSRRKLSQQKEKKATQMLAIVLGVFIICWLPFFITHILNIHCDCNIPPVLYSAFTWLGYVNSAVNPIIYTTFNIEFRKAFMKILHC
Compound,Ki (D(2) dopamine receptor) [nM],Ki [1] [nM]
Cc1cc(=O)oc2cc(OCCCN3CCN(c4ncccn4)CC3)ccc12,324,2340
COc1ccccc1N1CCN(CCCOc2ccc3c(OC)cc(=O)oc3c2)CC1,17.8,3090
COc1cc(=O)oc2cc(OCCCN3CCN(c4ccccc4)CC3)ccc12,562,1950
COc1cc(=O)oc2cc(OCCCN3CCN(c4ccccn4)CC3)ccc12,129,537
Cc1cc(=O)oc2cc(OCCCN3CCN(c4ccccn4)CC3)ccc12,81.3,1070
COc1ccccc1N1CCN(CCCOc2ccc3c(C)cc(=O)oc3c2)CC1,11.7,174
Cc1cc(=O)oc2cc(OCCCN3CCN(c4ccccc4)CC3)ccc12,45.7,933
COc1cc(=O)oc2cc(OCCCN3CCN(c4ncccn4)CC3)ccc12,47.9,138
